In patent US20190183100A1, “ANIMAL MODELS FOR POLYCYSTIC KIDNEY DISEASE” (Recombinetics, Inc., priority 2017, published 2019):

Tests used:
PKD1^FLEX-CreER2 = assay: Tamoxifen activation of PKD1^FLEX-CreER2 cassette in LLC-PK1 cells in vitro; assay type: cell-based, pig; settings: after tamoxifen treatment, LLC-PK1 targeted cells, expected
Description: Testing of PKD1^FLEX-CreER2 is conducted using the immortalized pig kidney cell line, LLC-PK1. Prior to conducting studies with the cassette integrated into cells, the efficacy of Cre recombination is optimized in transient transfections +/− tamoxifen and measure recombination by qPCR.
In vitro testing in the LLC-PK1, PKD1^FLEX-CreER2 targeted cells: The model cells developed above are treated in triplicate with 3 dosages of tamoxifen, and compared to non-treated cells. Percent recombination of the PKD1^FLEX-CreER2 cassette is analyzed visually for the loss of EGFP using FACS and molecularly by quantitative PCR for molecular quantification of recombination. Splicing of the PKD1^FLEX-CreER2 cassette is analyzed before and after recombination by RT-PCR from exon 14 to exon 16, followed by Sanger sequencing and qRT-PCR using primers spanning exon junctions of E14-15 and E15-16 respectively. Finally, induced and non-induced populations are compared at the protein level by western blotting.

porcine PKHD1 [1] = assay: Surveyor assay (cutting) and RFLP analysis (HDR) in transfected pig fibroblasts; assay type: cell-based; settings: for activity among the TALENs and CRISPR gRNAs tested for the target: comparison of reagents developed for the same target; for cutting, In Fibroblast Cells Incubated at 30° / RFLP, In Fibroblast Cells Incubated at 30° / cutting, In Fibroblast Cells Incubated at 37° / RFLP, In Fibroblast Cells Incubated at 37°: pig fibroblasts; for cutting, In Fibroblast Cells Incubated at 30° / RFLP, In Fibroblast Cells Incubated at 30°: 30 degrees C; for cutting, In Fibroblast Cells Incubated at 30° / cutting, In Fibroblast Cells Incubated at 37°: three days recovery, Surveyor assay; for RFLP, In Fibroblast Cells Incubated at 30° / RFLP, In Fibroblast Cells Incubated at 37°: with HDR template, RFLP assay; for cutting, In Fibroblast Cells Incubated at 37° / RFLP, In Fibroblast Cells Incubated at 37°: 37 degrees C
From the text: FIG. 12A, FIG. 12B: T36M introgression in cells. […] The region is highly conserved and threonine acid at position 36 in humans corresponds to residue 36 in pigs. Threonine acid 36 is identified in pig genomic DNA sequence, and […] (maroon arrow) are designed to cleave near T36. FIG. 12A also discloses SEQ ID NO: 118. […] It should be noted that position 3553 in pigs is a Valine residue and not pathogenic; henceforth this mutation will be referred to as either I3553T or V3553T. The cells were recovered for three days at 30 and 37 degrees C. prior to quantification of activity by the Surveyor assay and RFLP analysis with the Nsp1 restriction enzyme. The arrowheads depict the expected size of cleavage products for the Surveyor assay or RFLP assay.
A number of quality sites for TALENs and CRISPRs are ideally positioned for HDR mediated introgression the T36M mutation (Table 7, Table 8, Table 9). The assembled reagents are tested in pig fetal fibroblasts and embryos using standard operating procedures (SOPs) (FIG. 9B). Using these methods, hundreds of loci in pig and cattle have been successfully targeted, with efficiencies ranging from 5-75% in cultured cells.
For introgression of T36M into the porcine genome, two CRISPR Cas9 gRNAs and TALENs were tested in pig fibroblasts and embryos to optimize conditions (FIG. 12A, FIG. 12B, Table 7, Table 8, Table 9).

porcine PKHD1 [2] = assay: Cytoplasmic injection of parthenogenetic pig embryos, single blastocyst RFLP assay and sequencing; assay type: cell-based; settings: for RFLP In Embryos: pig embryos, with HDR template; for NHEJ n (%): R3229Q introgression
Description: The best performing combinations of TALENs and CRISPRs identified above, are evaluated in vitro by injection of in vitro matured (IVM) parthenogenetic pig embryos (FIG. 9C). […] In a small pilot study targeting porcine PDX1, 80% of alleles injected with a TALEN dosage of 40 ng/μl were able to be mutated, with nearly half of those directed to a particular edit by a homology template (FIG. 11B). FIG. 11A illustrates the steps required in production of in vitro matured pig embryos for microinjection. FIG. 11B illustrates the difference in percent success which using different concentrations of editing reagents for the PDX1 gene. A similar dosage escalation study is used to optimize for T36M introgression that balances survival of embryos in vitro with editing efficiency.
HDR efficiency was inversely associated with Cas9 dosage (50 vs 80% HDR) from highest to lowest concentration (Table 12 and FIG. 13A) likely a result of hyperactive cutting in the high concentration group. The fidelity of HDR events was further confirmed by sequencing (FIG. 13B) which confirms that the wild type triplet “ACA” coding, for threonine has been converted to “ATG” coding for methionine (FIG. 9A) using the template HDR sequence. Overall, condition C3, 25 ng/ul of Cas9, 12.5 ng/ul of gRNA and 50 ng/μl of ssHDR, was optimal for both blastocyst formation rate and HDR activity. If this site proves problematic, alternative missense mutations commonly observed in more than one family of ARPKD patients, such as I3553T, I222V, P805L or R3229Q are introgressed.
By the same process as Example 8, R3229Q was engineered into the PKHD1 gene. R3229Q is the equivalent mutation to R3240Q in humans (FIG. 16A), which in a homozygous state causes moderate ARPKD. Also, as noted previously, the annotation of PKHD1 has changed since initial contigs placed R3240Q in exon 58 versus exon 65. Also, R3240Q in humans, maps to different residue numbers in pigs based on transcript selected. […] Injections into parthenogenetic embryos were performed as before, with two conditions using a ssODN as the homology template ssPKHD1 65.1 3240 R to Q (Table 10); C1 (100/50/50) (Cas9 mRNA/gRNA65.1/homology template, all ng/μl) and C3 (25/12.5/50) (Cas9 mRNA/gRNA65.1/homology template, all ng/μl) (Table 9). […] HDR was also prevalent in the C3 condition (75%) whereas total mutation rate (indels+HDR alleles) was 100 and 95% for C1 and C3 respectively. […] Blastocyst 3.19 is homozygous for R3229Q while 3.12 has one HDR allele and one indel allele.

porcine PKHD1 [3] = assay: Injection of in vivo produced porcine embryos, genotype of born piglets; design: species or system pig; settings: 22 piglets, litters 115 and 116, condition C3
Description: Founder animals for ARPKD were produced using the process of Example 8 with minor changes. The T36M reagents (ssPKHD1 CRISPR 3.1 and template ssPKHD1 3.1 36 T to M) were injected into in vivo produced porcine embryos at the 1 or 2 cell stage. Condition C3 was used for injection and the 60 resulting embryos were split equally between to synchronized recipients. A total of 22 piglets were born, 14 from one surrogate (litter ID 115) and 8 from the other (litter ID 116). Newborn piglets were visually assessed for fitness and four, 115-1, 115-2, 115-3 and 115-8 were reluctant to suckle from their mothers and had visible abdominal distension (Table 14). […] Each of the remaining piglets was analyzed for a visible phenotype at 20 days of age (Table 14). Genotype of the piglet was a strong indicator of disease severity as 115-1, 115-2, 115-3 and 115-8 are predicted to have null mutations on each allele while mild cases had some combination of T36M mutation or single allele mutations (Table 14). Overall, ˜55% of offspring were mutant with 5 showing T36M mutations (Table 15). This rate is lower than observed above. A key difference is the embryos source. Parthenogenetic embryos were used in previous experiments where timing of activation is tightly controlled. In contrast, this experiment used in vivo produced embryos (bred sows, embryos collected ˜18 hours post fertilization) where timing is variable. However, the hypothesis that a variety of disease alleles and severities could be produced in a single litter was confirmed.

[4] = C1 (100/50/50) ng/μl Cas9/gRNA/ssODN, T36M template
[5] = C2 (50/25/50) ng/μl Cas9/gRNA/ssODN, T36M template
[6] = C3 (25/12.5/50) ng/μl Cas9/gRNA/ssODN, T36M template

Molecule	activity among the TALENs and CRISPR gRNAs tested for the target (porcine PKHD1 [1])	cutting, In Fibroblast Cells Incubated at 30° (porcine PKHD1 [1])	RFLP, In Fibroblast Cells Incubated at 30° (porcine PKHD1 [1])	cutting, In Fibroblast Cells Incubated at 37° (porcine PKHD1 [1])	RFLP, In Fibroblast Cells Incubated at 37° (porcine PKHD1 [1])	RFLP In Embryos (porcine PKHD1 [2])	other results
CC/C(=C(\c1ccccc1)c1ccc(OCCN(C)C)cc1)c1ccccc1 [tamoxifen]	–	–	–	–	–	–	activation of the integrated PKD1^FLEX-CreER2 cassette (PKD1^FLEX-CreER2): > 80%
ssPKHD1 CRISPR 3.1: CRISPR guide RNA (SEQ ID NO: 103) targeting exon 3 of porcine PKHD1, used with Cas9 mRNA and T36M HDR template (guide GGATTACCGTGTTCTTCGATGG; chemistry not given here)	greatest activity in cells	0% cutting	RFLP detected, too	30.8% cutting	RFLP 44.7%	80% RFLP	RFLP, In Fibroblast Cells Incubated at 37° (porcine PKHD1 [1]; listed as CRISPR 3.1): up to 44.7%; Mutated n (%) (porcine PKHD1 [2]; [4]): 17 (94.4%); NHEJ^− n (%) (porcine PKHD1 [2]; [4]): 7 (38.8%); HDR^+ n (%) (porcine PKHD1 [2]; [5]): 11 (55.0%); Mutated n (%) (porcine PKHD1 [2]; [5]): 19 (95.0%); NHEJ^− n (%) (porcine PKHD1 [2]; [5]): 8 (40.0%); Mutated n (%) (porcine PKHD1 [2]; [6]): 19 (95.0%); NHEJ^− n (%) (porcine PKHD1 [2]; [6]): 3 (15.0%); embryos mutated (porcine PKHD1 [2]; CRISPR/Cas9 dosage of 25-100 ng/μl): Up to 95%; blastocyst formation rate (toxicity by embryo development analysis) (porcine PKHD1 [2]; cytoplasmic injection with HDR oligo at C1, C2, C3, highest in C3): high in each group; Heterozygous T36M % (number) (porcine PKHD1 [3]): 9% (2/22); Homozygous T36M % (number) (porcine PKHD1 [3]): 13.6% (3/22); Wild type % (number) (porcine PKHD1 [3]): 45.5% (10/22)
ssPKHD1 CRISPR 3.2: CRISPR guide RNA (SEQ ID NO: 104) targeting exon 3 of porcine PKHD1 (guide GCAGCCTCGCAGGGGGAACATGG; chemistry not given here)	–	0% cutting at 30	RFLP detected, too	0% cutting at 37	RFLP detected, too	0% RFLP	–
ssPKHD1 CRISPR 65.1: CRISPR guide RNA (SEQ ID NO: 105) for R3229Q (human R3240Q) introgression into porcine PKHD1 (guide GGGGTCGAGTTGGTATATTGTGG; chemistry not given here)	greatest activity	Cutting detected, too	7.3% RFLP	Cutting detected, too	11% RFLP	89%	NHEJ n (%) (porcine PKHD1 [2]; C1 (100/50/50) ng/μl): 2 (10.5%); NHEJ n (%) (porcine PKHD1 [2]; C3 (25/12.5/50) ng/μl): 4 (15.0%)
